Where two headings read alike, the source gives them in different places.
Key:
PARP1 = target: T1, PARP1 (Homo sapiens, UniProt P09874); experiment: Steady-state kinetic analysis of the PARP1 enzymatic reaction; format: biochemical; conditions: for Type of inhibition: Vmax decreased, KM increased
T1 construct: made in house; host or cells: insect cells
Description: (§1) The four efficient inhibitors of PARP1 (compounds 8, 12, 13, and 14) were further examined by detailed kinetic experiments to determine the type of inhibition and the inhibition constants. […] The kinetics experiments of the PARylation reaction were performed at varied concentrations of the NAD^+ substrate and three–four different fixed concentrations of the inhibitor. The kinetic parameters of the reaction (Vmax and KM) were calculated by fitting the Michaelis–Menten equation to the kinetic data. The type of inhibition was determined by analyzing the dependences of Vmax and KM on the concentration of the inhibitor in linearizing coordinates (Figure S3). All the compounds had decreased Vmax and increased KM values as the inhibitor concentration increased (panels A−E), indicating a mixed type of inhibition, which was further evidenced by the double reciprocal plots of kinetic data (panel F). From these experiments, the inhibition constants reflecting the affinity of inhibitors to the NAD^+ binding pocket of free enzymes were determined (Table 2).
(§2) To determine the apparent maximum rate of enzymatic reaction (Vmax), Michaelis constant (KM), and possible inhibition mechanism, steady-state kinetic experiments were performed at […] fixed concentrations of the substrate, in the absence and presence of different fixed concentrations of the inhibitor. The standard reaction mixtures (10 μL) contained 100 μM, 300 μM, 500 μM, 1 mM, or 2 mM NAD^+; a tested PARP1/PARP2 inhibitor specified for each compound (Figure S3); the recombinant human enzyme PARP1 (200 nM) or murine PARP2 (800 nM); and reaction buffer components (specified in the previous subsection). The reaction was performed as described in the previous subsection. The raw data (kinetic curves) were obtained in three independent experiments and statistically processed with OriginPro 8.6.0 software. […]
F) Graphical representation in double reciprocal plots. The inhibitor concentrations (µM) are indicated right to each panel.
Figure S3. Graphical representation of inhibition type determination for PARP1 and PARP2 with selected compounds.
The Ki and Ki(2) values presented in Table 2 in the main text and Table S1 were calculated using the equations:
Ki = Ci⁄ Ki (2) = CiV Vmax ∗ൗ−1
ቂ(Vmax Km )൘ቃ(Vmax ∗ Km ∗)⁄ −1 where Vmax (Vmax*) – maximal reaction velocity in th e absence (presence) of inhibitor; Km (Km*) – Michaelis constant in the absence (presence) of inhibitor; Ci – the inhibitor concentration.
(also on this page, place not known: Ci )⁄ (Vmax ∗ )⁄൘ቃ − Ki(2) Ci V ∗ൗ− 1 the Vmax KM 3000 0 1 0 250 [ 32 P]ADP-ribose, counts x 10 -3 NAD + ,)
(1 picture or pasted object on this page, not shown here)

PARP1-DNA complex [1] = target: T2, PARP1-DNA complex (Homo sapiens, UniProt P09874); experiment: Fluorescence anisotropy titration of FAM-labeled gap-DNA with PARP1; format: binding; conditions: 120 µM inhibitor, absence vs presence
T2 construct: made in house; host or cells: insect cells
T2 sequence (P09874 whole entry, one chain of several): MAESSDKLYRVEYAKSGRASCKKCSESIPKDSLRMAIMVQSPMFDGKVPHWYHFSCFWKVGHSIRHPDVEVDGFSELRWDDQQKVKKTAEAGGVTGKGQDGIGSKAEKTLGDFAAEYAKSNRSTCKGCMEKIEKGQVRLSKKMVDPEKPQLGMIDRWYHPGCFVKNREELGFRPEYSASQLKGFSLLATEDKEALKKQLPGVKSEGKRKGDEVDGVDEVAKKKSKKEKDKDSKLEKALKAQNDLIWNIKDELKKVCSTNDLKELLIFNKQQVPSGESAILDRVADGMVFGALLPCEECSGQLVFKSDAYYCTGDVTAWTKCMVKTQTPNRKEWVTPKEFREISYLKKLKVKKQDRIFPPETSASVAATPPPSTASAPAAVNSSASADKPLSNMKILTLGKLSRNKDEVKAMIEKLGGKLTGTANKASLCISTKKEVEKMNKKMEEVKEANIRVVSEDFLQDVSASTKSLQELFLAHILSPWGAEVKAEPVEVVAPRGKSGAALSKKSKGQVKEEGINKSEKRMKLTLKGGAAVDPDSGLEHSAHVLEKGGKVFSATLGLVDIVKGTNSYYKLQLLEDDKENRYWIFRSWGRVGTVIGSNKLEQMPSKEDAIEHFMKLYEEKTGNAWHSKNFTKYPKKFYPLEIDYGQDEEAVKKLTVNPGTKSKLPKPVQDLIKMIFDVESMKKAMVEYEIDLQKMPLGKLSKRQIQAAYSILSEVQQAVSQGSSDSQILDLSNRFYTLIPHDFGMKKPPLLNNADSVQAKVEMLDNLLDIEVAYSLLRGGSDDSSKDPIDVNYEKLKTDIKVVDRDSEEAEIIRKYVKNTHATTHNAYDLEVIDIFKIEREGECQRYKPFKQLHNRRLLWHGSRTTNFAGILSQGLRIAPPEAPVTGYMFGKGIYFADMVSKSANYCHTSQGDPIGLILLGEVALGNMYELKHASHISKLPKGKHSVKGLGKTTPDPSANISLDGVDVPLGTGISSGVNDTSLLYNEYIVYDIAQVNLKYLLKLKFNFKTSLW
Description: (§3) Fluorescence anisotropy measurements of FAM-labeled DNA were performed in the absence and presence of various concentrations of PARP1/PARP2 with or without sub-saturating concentrations of an inhibitor. […] The averaged values were used for the final plot, and EC50 values were determined with MARS Data Analysis software version 3.00 (BMG LABTECH, Ortenberg, Germany). The data were plotted (F vs. C) and fitted to a four-parameter equation, F = F0 + (F∞ − F0)/[1 + (EC50/C)^n], where F is the measured fluorescence anisotropy of a solution containing the labeled DNA at a given concentration (C) of protein, F0 is the fluorescence anisotropy of the solution of the labeled DNA alone, F∞ is the fluorescence anisotropy of the labeled DNA saturated with the protein, EC50 is the concentration of the protein where F − F0 = (F∞ − F0)/2, and n is the Hill coefficient, which denotes the slope of the nonlinear curve. The apparent rate constants (kobs values) of dissociation of the PARP1 (PARP2)-DNA complex during the PARylation reaction performed in the absence or presence of an inhibitor were estimated by fluorescence anisotropy measurements, as described previously. […] The kinetic data were fitted to an exponential curve to calculate kobs with MARS Data Analysis software. […]

PARP1-DNA complex [2] = target: T2, PARP1-DNA complex; experiment: AutoPARylation-induced dissociation of the PARP1-DNA complex (fluorescence anisotropy kinetics); format: biochemical; conditions: 120 µM H2N-Mor-T or 400 nM olaparib
Description: as §3

PARP2 = target: T3, PARP2 (Mus musculus, UniProt O88554); experiment: Steady-state kinetic analysis of the PARP2 enzymatic reaction; format: biochemical, murine
T3 construct: made in house; host or cells: insect cells
T3 sequence (O88554 whole entry): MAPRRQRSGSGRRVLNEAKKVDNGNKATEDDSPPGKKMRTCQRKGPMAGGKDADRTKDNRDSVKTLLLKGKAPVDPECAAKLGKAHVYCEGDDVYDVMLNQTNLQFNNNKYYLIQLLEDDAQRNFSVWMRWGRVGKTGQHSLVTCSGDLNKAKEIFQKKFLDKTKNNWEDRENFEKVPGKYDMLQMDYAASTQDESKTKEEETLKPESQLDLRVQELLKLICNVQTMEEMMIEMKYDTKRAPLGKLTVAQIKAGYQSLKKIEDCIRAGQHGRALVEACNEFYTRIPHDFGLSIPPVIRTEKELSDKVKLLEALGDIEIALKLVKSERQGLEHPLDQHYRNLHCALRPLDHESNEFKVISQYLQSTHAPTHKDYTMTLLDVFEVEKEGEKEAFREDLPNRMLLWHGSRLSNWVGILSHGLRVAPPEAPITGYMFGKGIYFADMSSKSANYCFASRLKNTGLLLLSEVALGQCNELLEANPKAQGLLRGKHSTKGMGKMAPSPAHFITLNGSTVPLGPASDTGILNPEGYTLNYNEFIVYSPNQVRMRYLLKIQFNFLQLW
Description: as §1, §2
F) Graphical representation in double reciprocal plots. […]
The Ki and Ki(2) values presented in Table 2 in the main text and Table S1 were calculated using the equations: […]

PARP2-DNA complex [3] = target: T4, PARP2-DNA complex (Mus musculus, UniProt O88554); experiment: Fluorescence anisotropy titration of FAM-labeled gap-DNA with PARP2; format: binding, murine; conditions: 240 µM inhibitor
T4 construct: made in house; host or cells: insect cells
T4 sequence (O88554 whole entry, one chain of several): as the sequence (O88554 whole entry) above
Description: as §3

PARP2-DNA complex [4] = target: T4, PARP2-DNA complex; experiment: AutoPARylation-induced dissociation of the PARP2-DNA complex (fluorescence anisotropy kinetics); format: biochemical, murine; conditions: 240 µM H2N-Mor-U(I) or 800 nM olaparib
Description: as §3

[5] = mixed-type inhibition, read-out: Ki (affinity for the free enzyme)
[6] = read-out: Ki(2) (affinity for the enzyme complex with NAD+ substrate)

T1 sequence (P09874 whole entry): as the sequence (P09874 whole entry, one chain of several) above

## Cc1cn([C@H]2CNC[C@@H](CN)O2)c(=O)[nH]c1=O [Compound 8]
PARP1
  Type of inhibition: mixed-type inhibition
PARP1; [5]
  Ki: 12 ± 2 µM
PARP1; [6]
  Ki: 40 ± 8 µM
PARP1-DNA complex [1]
  Effect of inhibitor on EC50 of the PARP1–DNA complex: almost the same
PARP1-DNA complex [2]; 0.4 mM NAD+
  Inhibition of dissociation of the PARP1 complex with DNA: ~ 2 fold
PARP1-DNA complex [2]; 1.4 mM NAD+
  Inhibition of dissociation of the PARP1 complex with DNA: ~ 1.5 fold

## NC[C@@H]1CNC[C@H](n2cc(I)c(=O)[nH]c2=O)O1 [Compound 14]
PARP1
  Type of inhibition: mixed-type inhibition
PARP1; [5]
  Ki: 15 ± 3 µM
PARP1; [6]
  Ki: 50 ± 10 µM
PARP2; Vmax decreased, KM increased
  Type of inhibition: mixed-type inhibition
PARP2; [5]
  Ki: 120 ± 23 µM
PARP2; [6]
  Ki: 400 ± 70 µM
PARP2-DNA complex [3]
  Effect of inhibitor on the stability of the PARP2–DNA complex: No statistically significant effect
PARP2-DNA complex [4]; 0.4 mM NAD+
  Inhibition of dissociation of the PARP2 complex with DNA: ~ 2 fold
PARP2-DNA complex [4]; 1.4 mM NAD+
  Inhibition of dissociation of the PARP2 complex with DNA: ~ 1.5 fold
